Among the data in PubChem BioAssay (NCI) are GI50 and TGI values, retold here.

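48-hour exposure; five concentrations; linearly interpolated endpoints. GI50 is the concentration that inhibits growth by half. TGI: concentration producing complete growth inhibition.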 A value given as a limit tells only on which side of the number the result lay.

Some test systems named below: NCI-H522 lung; UO-31 renal; U251 CNS; ACHN renal; SNB-19 CNS; BT-549 breast; RPMI-8226 leukemia; SNB-75 CNS; OVCAR-8 ovarian; MDA-MB-231 breast.
Holding throughout (test): growth of human tumour cells (NCI), 48 h

With `Clc1ccc(N2COOC3(OOC2)C2CC4CC(C2)CC3C4)cc1`, the GI50 was 1.75 µM with NCI-H522 lung; 0.579 µM in the assay with UO-31 renal; 11.9 µM in the assay with U251 CNS; 0.622 µM in the assay with ACHN renal; more than 40 µM with SNB-19 CNS; 5.96 µM in the assay on BT-549 breast. For the same compound, the GI50 is 4.28 µM with RPMI-8226 leukemia, 10.8 µM in the assay on SNB-75 CNS, 14.4 µM with OVCAR-8 ovarian and 6.69 µM with MDA-MB-231 breast. Further, the TGI was 6.91 µM in the assay on NCI-H522 lung; 2.21 µM in the assay with UO-31 renal; 32.9 µM in the assay with U251 CNS; 6.03 µM with ACHN renal; more than 100 µM in the assay on SNB-19 CNS; more than 58 µM in the assay with BT-549 breast. Also, the TGI with RPMI-8226 leukemia was 14.7 µM; in the assay on SNB-75 CNS, 55.2 µM; with OVCAR-8 ovarian it was more than 100 µM; with MDA-MB-231 breast, more than 57.9 µM.

As to `Cc1cc(S(=O)(=O)Nc2nnc(-c3ccco3)c(-c3ccco3)n2)c(SCc2ccccc2)cc1Cl`, the GI50 with NCI-H522 lung is 24.8 µM; in the assay with UO-31 renal, 21.7 µM; in the assay with U251 CNS it was 25.7 µM; in the assay with ACHN renal, 20.2 µM; in the assay with SNB-19 CNS it was 21.7 µM; with BT-549 breast, 25.3 µM. Further, the GI50 with RPMI-8226 leukemia is 18.4 µM; in the assay on SNB-75 CNS it was 32.1 µM; in the assay with OVCAR-8 ovarian, 26.6 µM; with MDA-MB-231 breast, 24.8 µM. For the same compound, the TGI in the assay on NCI-H522 lung was 65.7 µM; in the assay on UO-31 renal it was 50.4 µM; in the assay on U251 CNS, 62.2 µM; in the assay on ACHN renal, 41.9 µM; in the assay with SNB-19 CNS it was 43.8 µM; in the assay on BT-549 breast it was 50.2 µM. In addition, the TGI with RPMI-8226 leukemia amounted to 61.4 µM; in the assay with SNB-75 CNS it was 56.2 µM; in the assay on OVCAR-8 ovarian, 71.1 µM; in the assay on MDA-MB-231 breast it was 47.6 µM.

With `Clc1ccc(Nc2ccnc(NCCNc3ccnc4cc(Cl)ccc34)n2)cc1`, the GI50 with NCI-H522 lung was 1.7 µM; with UO-31 renal, 1.21 µM; in the assay with U251 CNS, 1.33 µM; in the assay on ACHN renal it was 1.63 µM; in the assay with SNB-19 CNS, 1.54 µM; in the assay on BT-549 breast, 1.5 µM. Also, the GI50 with RPMI-8226 leukemia was 1.38 µM; in the assay with SNB-75 CNS, 1.22 µM; with OVCAR-8 ovarian, 1.59 µM; in the assay on MDA-MB-231 breast it was 1.59 µM. Also, the TGI came out at 3.27 µM with NCI-H522 lung; 2.6 µM in the assay on UO-31 renal; 2.67 µM in the assay with U251 CNS; 3.09 µM in the assay on ACHN renal; 3.07 µM in the assay on SNB-19 CNS; 3.2 µM with BT-549 breast. Further, the TGI was 3.73 µM in the assay with RPMI-8226 leukemia, 2.47 µM in the assay with SNB-75 CNS, 3.37 µM in the assay on OVCAR-8 ovarian and 3.31 µM with MDA-MB-231 breast.

`Nc1nc(SCC(=O)O)[nH]c(=O)c1N`: the TGI with NCI-H522 lung, with UO-31 renal, in the assay with U251 CNS, with ACHN renal, in the assay on SNB-19 CNS and with BT-549 breast was more than 100 µM in each case. The TGI with RPMI-8226 leukemia is 99.7 µM; with SNB-75 CNS, more than 100 µM; with OVCAR-8 ovarian it was more than 100 µM; in the assay with MDA-MB-231 breast it was more than 100 µM.
